The values below come from patent US6566129B1, “Transformed cells useful for the control of pests” (University of Florida Research Foundation, Inc., priority 1999, dated 2003).

What all share (format): in vivo
The test system of series [1] is Aedes aegypti larvae. The series can be described thus: Effect of TMOF and its analogue peptides on mosquito larvae (feeding, LD50). Particulars: newly hatched larvae on autoclaved yeast 1 mg/ml, microtiter plates, 7 days. The source says:
TMOF can traverse the gut epithelium, enter the hemolymph and bind a gut receptor (Borovsky, D. and F. Mahmood (1995) “Feeding the mosquito Aedes aegypti with TMOF and its analogs; effect on trypsin biosynthesis and egg development,” Regulatory Peptides57:273-281; Borovsky, et al. (1994) “Characterization and localization of mosquito-gut receptors for trypsin modulating oostatic factor using complementary peptide immunochemistry” FASEB J. 8:350-355.). […] To find out if truncated TMOF peptides have an effect on larval growth and development, a series of peptides were synthesized and tested by feeding them to mosquito larvae at concentrations of 0 to 5.0 mg/ml (Table 3). Individual, newly hatched Aedes aegypti larvae were maintained in separate microtiter wells on a diet of autoclaved yeast (1 mg/ml). The diet was supplemented with TMOF peptides (Table 3). An identical number of larvae maintained on yeast served as a control. […] All control groups survived and larval growth and development was normal. Since larvae swallow only a small portion of the yeast particles that adsorbed the peptides, it is assumed that approximately 1 to 20 ng are taken orally at the high concentrations.

The next series has as its system trypsin biosynthesis. In words: Effect of injected TMOF-R analogues on trypsin biosynthesis in Heliothis virescens (BApNA). Particulars: 2nd instar larvae, 24 hours after injection. The protocol: Individual second instar larvae of H. virescens were injected with TMOF-R analogues (10 to 0.25 μg per larva) and maintained in separate plastic cups on artificial diet. Twenty-four hours after the injections 3 groups of larvae (3 per group) were assayed for trypsin biosynthesis using BApNA (trypsin specific substrate; Table 5).

Series [2] has as its system Aedes aegypti larvae. In words: Effect of feeding TMOF-R analogues on Aedes aegypti larvae (LC50). As to conditions: fed in microtiter plates with yeast particles for 5 to 6 days; read-out: LC50 (mM ± S.E.M.). The protocol:
TMOF analogues (5 to 8 amino acids in length, and polymers of these analogues) in which Arg was added at the C-terminus were evaluated to determine their effect on larval growth and development. A series of analogues were synthesized and tested by feeding them to mosquito larvae at concentrations of (0.5 to 5.0 mg/ml; Table 4). Concentrations of 2.0 to 0.065 mg/ml were used to feed mosquito larvae and calculate the Lethal Dose at 50% mortality (LD50; Table 4) of the TMOF analogues. […] In both cases larval death and trypsin biosynthesis inhibition was noted (Table 4 and 5). […] The advantage of using short analogues connected by Arg is that they can be digested in the gut into short TMOF analogues that can penetrate the midgut much faster than longer analogues.
Individual, newly hatched Aedes aegypti larvae were maintained in separate microtiter wells on a diet of autoclaved yeast (1 mg/ml). The diet was supplemented with TMOF analogues (Table 4). An identical number of larvae were maintained on yeast served as a control. […] All control groups survived and larval growth and development were normal. Larvae that were fed TMOF analogues had increased mortality, particularly when the larvae where fed the concentrations of the analogues higher than 2 mg/ml (Table 4).
Since larvae swallow only a small portion of the yeast particles that adsorbed the analogues it is assumed that approximately I to 20 ng are taken orally at the high concentrations. Using the various concentrations a lethal concentration that caused 50% mortality (LC50) for the mosquito larvae was calculated (Table 4). The results presented in Table 4 clearly indicate that the short TMOF-R analogues are very effective, especially the (DPAR)4 (SEQ ID NO. 61) polymer that is broken into 4 DPARs (SEQ ID NO. 60) in the gut.

Ends that are not written are not given here.

Broadly, the LC50 is the concentration lethal to half of the exposed cells or organisms. For the substance YDPAPPPPPP [YDPAP6, reference compound], the “LD50 mM ± S.E.M.” value with Aedes aegypti larvae [1] was found to be 0.2 ± 0.02 mM. The “Inhibition (% ± S.E.M.) of trypsin biosynthesis” value in the series on trypsin biosynthesis (0.25 μg/injection) is 19.5 ± 0.7%; in the series on trypsin biosynthesis (0.5 μg/injection), 11 ± 1%; in the series on trypsin biosynthesis (1 μg/injection) it was 25 ± 2%; in the series with trypsin biosynthesis (10 μg/injection), 56%. Also, the LC50 with Aedes aegypti larvae [2] was found to be 0.2 ± 0.02 mM.
With YDPAPR [YDPAPR], the “Inhibition (% ± S.E.M.) of trypsin biosynthesis” value in the series on trypsin biosynthesis (0.25 μg/injection) is on record as 11 ± 1%; in the series with trypsin biosynthesis (0.5 μg/injection), 14 ± 1%; in the series with trypsin biosynthesis (1 μg/injection) it was 31.5 ± 2%; with trypsin biosynthesis (10 μg/injection) it was 53 ± 25%. In addition, the LC50 in the series with Aedes aegypti larvae [2] stood at 0.24 ± 0.02 mM.
YDPAR [YDPAR]: the results for the “Inhibition (% ± S.E.M.) of trypsin biosynthesis” value in the series with trypsin biosynthesis (0.5 μg/injection), in the series on trypsin biosynthesis (1 μg/injection) and with trypsin biosynthesis (10 μg/injection) were 1 ± 0.07%, 39 ± 2% and 33.5 ± 9%, respectively. In addition, in the series on Aedes aegypti larvae [2], the LC50 came to 0.12 ± 0.07 mM.
